How the values were obtained:
mice = experiment: induction of natriuresis in mice in vivo (procedure of European patent application 0274234); conditions: dose (mg/kg) given
Source text: (§1) Appropriate reagents and conditions for the various coupling and deprotection steps, described above, together with procedures for determining the biological activity of the products of formula (II) and appropriate pharmaceutical compositions and dosage ranges for their use are described in European patent application no. 0274234.
(§2) The activity of the racemate and separated enantiomers of the cis-4-{1-[2-carboxy-3-(2-methoxyethoxy)propyl]-1-cyclopentanecarboxamido}-1-cyclohexanecarboxylic acid was assessed by measuring their ability to inhibit the neutral endopeptidase E.C.3.4.24.11 in vitro or to induce natriuresis in mice in vivo following the procedure described in European patent application 0274234.

[1] = tested on: neutral endopeptidase E.C.3.4.24.11; experiment: inhibition of neutral endopeptidase E.C.3.4.24.11 in vitro (procedure of European patent application 0274234); format: biochemical; conditions: general statement on the separated enantiomers of the diacid
Source text: as §1, §2

Row | Compound | Natriuresis in mouse (i.v.) (mice) | biological activity [1]
1 | COCCOCC(CC1(C(=O)N[C@H]2CC[C@@H](C(=O)O)CC2)CCCC1)C(=O)O (mixture of isomers) [(±) R,S, cis-4-{1-[2-carboxy-3-(2-methoxyethoxy)propyl]-1-cyclopentanecarboxamido}-1-cyclohexanecarboxylic acid] | active at 3 mg/kg | –
2 | COCCOCC(CC1(C(=O)N[C@H]2CC[C@@H](C(=O)O)CC2)CCCC1)C(=O)O (relative stereo) [(-) R, cis-4-{1-[2-carboxy-3-(2-methoxyethoxy)propyl]-1-cyclopentanecarboxamido}-1-cyclohexanecarboxylic acid] | inactive at 3 mg/kg | virtually inactive
3 | COCCOC[C@H](CC1(C(=O)N[C@H]2CC[C@@H](C(=O)O)CC2)CCCC1)C(=O)O (racemic) [(±) S, (S)-cis-4-{1-[2-Carboxy-3-(2-methoxyethoxy)propyl]-1-cyclopentanecarboxamido}-1-cyclohexanecarboxylic acid] | active at 1.5 mg/kg | –
